Tests used:
TYK2 = target: T1, TYK2 (Homo sapiens, UniProt P29597); assay: Kinobeads assay, TYK2 (competition binding in mixed Molt4/Ramos cell lysate, dot blot detection)
T1 construct: endogenous in cells; host or cells: mixed Molt4/Ramos cell lysate (1:2)
Description: (§1) The compounds of the present invention as described in the previous examples were tested in a Kinobeads™ assay as described for ZAP-70 (WO-A 2007/137867). Briefly, test compounds (at various concentrations) and the affinity matrix with the immobilized aminopyrido-pyrimidine ligand 24 were added to cell lysate aliquots and allowed to bind to the proteins in the lysate sample. After the incubation time the beads with captured proteins were separated from the lysate. Bound proteins were then eluted and the presence of TYK2 and JAK2 was detected and quantified using specific antibodies in a dot blot procedure and the Odyssey infrared detection system. Dose response curves for individual kinases were generated and IC50 values calculated. Kinobeads™ assays have been previously described (WO-A 2007/137867; WO-A 2006/134056).
(§2) The affinity matrix was washed two times with 15 mL of 1×DP buffer containing 0.2% NP40 (IGEPAL® CA-630, Sigma, #13021) and then resuspended in 1×DP buffer containing 0.2% NP40 (3% beads slurry).
(§3) 5×DP buffer: 250 mM Tris-HCl pH 7.4, 25% Glycerol, 7.5 mM MgCl2, 750 mM NaCl, 5 mM Na3VO4; filter the 5×DP buffer through a 0.22 μm filter and store in aliquots at −80° C. The 5×DP buffer is diluted with H2O to 1×DP buffer containing 1 mM DTT and 25 mM NaF.
(§4) Stock solutions of test compounds were prepared in DMSO. In a 96 well plate 30 μL solution of diluted test compounds at 5 mM in DMSO were prepared. Starting with this solution a 1:3 dilution series (9 steps) was prepared. For control experiments (no test compound) a buffer containing 2% DMSO was used.
(§5) Molt4 cells (ATCC catalogue number CRL-1582) and Ramos cells (ATCC catalogue number CRL-1596) were grown in 1 L Spinner flasks (Integra Biosciences, #182101) in suspension in RPMI 1640 medium (Invitrogen, #21875-034) supplemented with 10% Fetal Bovine Serum (Invitrogen) at a density between 0.15×10^6 and 1.2×10^6 cells/mL. Cells were harvested by centrifugation, washed once with 1×PBS buffer (Invitrogen, #14190-094) and cell pellets were frozen in liquid nitrogen and subsequently stored at −80° C. Cells were homogenized in a Potter S homogenizer in lysis buffer: 50 mM Tris-HCl, 0.8% NP40, 5% glycerol, 150 mM NaCl, 1.5 mM MgCl2, 25 mM NaF, 1 mM sodium vanadate, 1 mM DTT, pH 7.5. One complete EDTA-free tablet (protease inhibitor cocktail, Roche Diagnostics, 1873580) per 25 mL buffer was added. The material was dounced 10 times using a mechanized POTTER S, transferred to 50 mL falcon tubes, incubated for 30 minutes on ice and spun down for 10 minutes at 20,000 g at 4° C. (10,000 rpm in Sorvall SLA600, precooled). The supernatant was transferred to an ultracentrifuge (UZ)-polycarbonate tube (Beckmann, 355654) and spun for 1 hour at 100.000 g at 4° C. (33.500 rpm in Ti50.2, precooled). The supernatant was transferred again to a fresh 50 mL falcon tube, the protein concentration was determined by a Bradford assay (BioRad) and samples containing 50 mg of protein per aliquot were prepared. The samples were immediately used for experiments or frozen in liquid nitrogen and stored frozen at −80° C.
(§6) Cell lysate (approximately 50 mg protein per plate) was thawed in a water bath at room temperature and then stored on ice. To the thawed cell lysate 1×DP 0.8% NP40 buffer containing protease inhibitors (1 tablet for 25 mL buffer; EDTA-free protease inhibitor cocktail; Roche Diagnostics 1873580) was added in order to reach a final protein concentration of 10 mg/mL total protein. The diluted cell lysate was stored on ice. Mixed Molt4/Ramos lysate was prepared by combining one volume of Molt4 lysate and two volumes of Ramos lysate (ratio 1:2).
(§7) To a 96 well filter plate (Multiscreen HTS, BV Filter Plates, Millipore #MSBVN1250) were
(§8) added per well: 100 μL affinity matrix (3% beads slurry), 3 μL of compound solution, and 50 μL of diluted lysate. Plates were sealed and incubated for 3 hours in a cold room on a plate shaker (Heidolph tiramax 1000) at 750 rpm. […]

JAK2 = target: T2, JAK2 (Homo sapiens, UniProt O60674); assay: Kinobeads assay, JAK2 (competition binding in mixed Molt4/Ramos cell lysate, dot blot detection)
T2 construct: endogenous in cells; host or cells: mixed Molt4/Ramos cell lysate (1:2)
Description: as §1, §2, §3, §4, §5, §6, §7, §8

T1 sequence (P29597 whole entry): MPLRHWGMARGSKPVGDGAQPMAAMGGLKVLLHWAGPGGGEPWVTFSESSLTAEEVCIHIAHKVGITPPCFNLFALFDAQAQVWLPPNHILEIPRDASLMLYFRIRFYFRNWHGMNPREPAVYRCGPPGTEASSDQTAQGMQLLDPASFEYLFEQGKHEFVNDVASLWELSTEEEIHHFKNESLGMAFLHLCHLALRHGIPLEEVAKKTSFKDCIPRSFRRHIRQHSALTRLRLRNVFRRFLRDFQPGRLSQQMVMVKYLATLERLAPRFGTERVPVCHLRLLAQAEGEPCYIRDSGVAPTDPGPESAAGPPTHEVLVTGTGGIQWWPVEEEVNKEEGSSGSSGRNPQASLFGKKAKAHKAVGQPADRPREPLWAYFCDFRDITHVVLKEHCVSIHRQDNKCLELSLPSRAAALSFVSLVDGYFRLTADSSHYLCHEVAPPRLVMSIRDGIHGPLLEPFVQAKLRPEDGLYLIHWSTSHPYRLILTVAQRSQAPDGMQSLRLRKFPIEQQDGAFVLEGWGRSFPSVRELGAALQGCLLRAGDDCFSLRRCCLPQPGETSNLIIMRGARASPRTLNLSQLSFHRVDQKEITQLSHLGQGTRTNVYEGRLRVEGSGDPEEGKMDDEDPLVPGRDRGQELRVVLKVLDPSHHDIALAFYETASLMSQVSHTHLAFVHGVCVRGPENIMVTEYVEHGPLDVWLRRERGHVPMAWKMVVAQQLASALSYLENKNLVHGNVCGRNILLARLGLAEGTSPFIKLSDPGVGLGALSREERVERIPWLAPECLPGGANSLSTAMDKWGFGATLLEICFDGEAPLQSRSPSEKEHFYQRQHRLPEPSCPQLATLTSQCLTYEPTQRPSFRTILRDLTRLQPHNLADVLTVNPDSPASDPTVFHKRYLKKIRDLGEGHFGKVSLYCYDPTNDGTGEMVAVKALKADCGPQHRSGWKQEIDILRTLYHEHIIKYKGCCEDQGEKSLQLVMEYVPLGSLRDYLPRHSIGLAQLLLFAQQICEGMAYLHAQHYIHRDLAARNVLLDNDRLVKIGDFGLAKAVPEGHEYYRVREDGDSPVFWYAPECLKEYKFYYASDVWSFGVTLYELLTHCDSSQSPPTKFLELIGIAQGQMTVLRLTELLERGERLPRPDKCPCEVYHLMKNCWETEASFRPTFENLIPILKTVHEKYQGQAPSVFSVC
T2 sequence (O60674 whole entry): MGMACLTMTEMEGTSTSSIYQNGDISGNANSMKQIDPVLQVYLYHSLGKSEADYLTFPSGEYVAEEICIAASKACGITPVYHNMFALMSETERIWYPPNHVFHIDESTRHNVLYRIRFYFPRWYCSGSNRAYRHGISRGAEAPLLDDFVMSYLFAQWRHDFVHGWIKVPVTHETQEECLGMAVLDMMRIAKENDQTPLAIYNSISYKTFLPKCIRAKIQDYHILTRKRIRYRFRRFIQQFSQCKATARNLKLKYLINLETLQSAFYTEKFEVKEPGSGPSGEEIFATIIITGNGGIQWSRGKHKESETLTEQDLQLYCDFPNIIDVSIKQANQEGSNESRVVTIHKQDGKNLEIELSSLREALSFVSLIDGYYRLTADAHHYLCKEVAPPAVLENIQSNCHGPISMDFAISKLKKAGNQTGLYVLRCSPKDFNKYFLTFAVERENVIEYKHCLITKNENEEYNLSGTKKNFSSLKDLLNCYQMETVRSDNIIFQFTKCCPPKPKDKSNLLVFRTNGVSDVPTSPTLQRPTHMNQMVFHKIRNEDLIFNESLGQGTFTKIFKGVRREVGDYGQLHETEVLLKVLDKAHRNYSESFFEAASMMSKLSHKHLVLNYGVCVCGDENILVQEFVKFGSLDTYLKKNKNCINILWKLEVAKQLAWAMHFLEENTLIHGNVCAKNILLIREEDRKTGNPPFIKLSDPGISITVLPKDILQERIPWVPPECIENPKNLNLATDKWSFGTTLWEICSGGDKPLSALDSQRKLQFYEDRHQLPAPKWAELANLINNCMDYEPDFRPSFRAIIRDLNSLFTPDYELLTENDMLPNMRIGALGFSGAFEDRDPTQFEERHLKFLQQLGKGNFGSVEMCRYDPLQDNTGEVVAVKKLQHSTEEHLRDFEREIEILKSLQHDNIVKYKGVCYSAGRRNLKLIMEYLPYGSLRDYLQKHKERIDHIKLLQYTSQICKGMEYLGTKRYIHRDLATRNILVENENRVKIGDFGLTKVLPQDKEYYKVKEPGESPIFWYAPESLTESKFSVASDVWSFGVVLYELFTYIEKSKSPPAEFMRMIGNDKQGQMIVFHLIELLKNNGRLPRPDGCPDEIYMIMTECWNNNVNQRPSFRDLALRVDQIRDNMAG

Row | SMILES | IC50 (TYK2) [nM] | IC50 (JAK2) [nM]
1 | COc1ccc(-c2cccc3nc(NC(=O)C4CC4)nn23)c(C(F)(F)F)c1 [Example 3, N-(5-(4-methoxy-2-(trifluoromethyl)phenyl)-[1,2,4]triazolo[1,5-a]pyridin-2-yl)cyclopropanecarboxamide] | 1000 to 10000 | > 10000
2 | COc1ccc(-c2cccc3nc(NC(=O)C4CC4)nn23)c(Cl)c1 [Example 4, N-(5-(2-chloro-4-methoxyphenyl)-[1,2,4]triazolo[1,5-a]pyridin-2-yl)cyclopropanecarboxamide] | 100 to 1000 | > 10000
3 | CS(=O)(=O)c1ccc(-c2cccc3nc(NC(=O)C4CC4)nn23)c(F)c1 [Example 5, N-(5-(2-fluoro-4-(methylsulfonyl)phenyl)-[1,2,4]triazolo[1,5-a]pyridin-2-yl)cyclopropanecarboxamide] | 100 to 1000 | > 10000
4 | CS(=O)(=O)Nc1ccc(-c2cccc3nc(NC(=O)C4CC4)nn23)c(Cl)c1 [Example 8, N-(5-(2-chloro-4-(methylsulfonamido)phenyl)-[1,2,4]triazolo[1,5-a]pyridin-2-yl)cyclopropanecarboxamide] | 100 to 1000 | > 10000
5 | COc1ccc(-c2cccc3nc(NC(=O)C4CC4)nn23)c(C)c1 [Example 10, N-(5-(4-methoxy-2-methylphenyl)-[1,2,4]triazolo[1,5-a]pyridin-2-yl)cyclopropanecarboxamide] | 100 to 1000 | > 10000
6 | O=C(Nc1nc2cccc(-c3ccc(NS(=O)(=O)C4CC4)cc3Cl)n2n1)C1CC1 [Example 11] | < 100 | > 10000

More lines, now with the values ahead:

Row | IC50 (TYK2) [nM] | IC50 (JAK2) [nM] | SMILES
7 | 100 to 1000 | > 10000 | COc1ccc(-c2cccc3nc(NC(=O)C4CC4)nn23)c(F)c1 [Example 1, N-(5-(2-fluoro-4-methoxyphenyl)-[1,2,4]triazolo[1,5-a]pyridin-2-yl)cyclopropane carboxamide]
8 | 100 to 1000 | > 10000 | O=C(Nc1nc2cccc(-c3ccc(Cl)cc3Cl)n2n1)C1CC1 [Example 2, N-(5-(2,4-dichlorophenyl)-[1,2,4]triazolo[1,5-a]pyridin-2-yl)cyclopropanecarboxamide]
9 | 100 to 1000 | > 10000 | Nc1ccc(-c2cccc3nc(NC(=O)C4CC4)nn23)c(Cl)c1 [Example 6, N-(5-(4-amino-2-chlorophenyl)-[1,2,4]triazolo[1,5-a]pyridin-2-yl)cyclopropanecarboxamide]
10 | 100 to 1000 | > 10000 | Nc1ccc(-c2cccc3nc(NC(=O)C4CC4)nn23)c(F)c1 [Example 7, N-(5-(4-amino-2-fluorophenyl)-[1,2,4]triazolo[1,5-a]pyridin-2-yl)cyclopropanecarboxamide]
11 | 100 to 1000 | > 10000 | CS(=O)(=O)Nc1ccc(-c2cccc3nc(NC(=O)C4CC4)nn23)c(F)c1 [Example 9, N-(5-(2-fluoro-4-(methylsulfonamido)phenyl)-[1,2,4]triazolo[1,5-a]pyridin-2-yl)cyclopropanecarboxamide]
12 | 100 to 1000 | > 10000 | Cc1ccc(-c2cccc3nc(NC(=O)C4CC4)nn23)c(C)c1 [Example 12, N-(5-(2,4-dimethylphenyl)-[1,2,4]triazolo[1,5-a]pyridin-2-yl)cyclopropanecarboxamide]

From US20130143915A1, “TRIAZOLOPYRIDINES AS TYK2 INHIBITORS” (CELLZOME LIMITED, priority 2010, published 2013)
